# Assay results from patent US12508262B2, “Methods of using ALK2 inhibitors” (Keros Therapeutics, Inc., priority 2020, dated 2025).
# Experiments:
# mouse model of IRIDA = assay: TMPRSS6 siRNA mouse model of IRIDA; assay type: in vivo, C57BL/6 mice
# Description: To establish a murine model of IRIDA, eight-week-old male C57BL/6 mice were dosed intravenously with lipid encapsulated siRNA targeted against either Luciferase (control) or TMPRSS6 (0.75 mg/kg). Following confirmation of disease at day 8 post initial siRNA administration, once-daily oral dosing with the compound of Formula I-42 (5 mg/kg) or vehicle commenced. A second siRNA administration was given on day 10. Studies were terminated 18 days post initial siRNA administration. Hematological parameters, serum iron, and serum hepcidin were measured at the end of the study.
# [1] = system: mouse model of chronic kidney disease (CKD); assay: Adenine-induced mouse model of chronic kidney disease; assay type: in vivo, C57Bl/6 mice
# Description: To induce chronic kidney disease (CKD), 6-week-old C57Bl/6 mice were dosed daily via PO administration with 50 mg/kg of adenine or vehicle. After six weeks of adenine administration, a representative group of mice were taken down and tested to confirm anemia. Concomitantly, the remainder of the CKD mice began dosing with either vehicle or the compound of Formula I-42 5 mg/kg PO daily. Mice were dosed with vehicle or the compound of Formula I-42 while still receiving daily adenine for 10 days. The study was terminated at 52 days and hematology (Heska, Element HT-5), serum hepcidin (Intrinsic Biosciences, Hepcidin Murine Compete), and serum iron (Bioassay Systems, QuantiChrom Kit) levels were assessed.
# healthy volunteers [2] = assay: Phase 1 single- and multiple-ascending dose study, safety and tolerability; assay type: in vivo, human
# Excerpt: A total of 131 healthy, males aged 18 to 60 years and post-menopausal females aged 45 to 60 years, participated in this study.
# (§1) The primary objectives of this study were to a) evaluate safety and tolerability of escalating doses of the compound of Formula I-11 administered as single and multiple oral doses in healthy male volunteers and healthy postmenopausal female volunteers and b) evaluate the PK parameters following escalating doses of the compound of Formula I-11 administered as single and multiple oral doses. The secondary objective of this study was to evaluate the pharmacodynamic (PD) parameters following escalating doses of the compound of Formula I-11 administered as single and multiple oral doses. This study was conducted in two parts.
# Part 1 included 80 participants (10 cohorts of 8 participants each). Male and female participants who met the eligibility criteria were randomly assigned, in a ratio of 3:1 to receive the compound of Formula I-11 or matching placebo, N=6 and 2 per dose cohort, respectively. Participant enrollment included […] males and 12.5% females (postmenopausal). The IMP formulation used in Cohorts 1 through 6 was an oral capsule (doses of 1, 3, 10, 30, 100, or 300 mg capsule formulation). An oral liquid formulation was evaluated in Cohorts 7 through 10 (doses of 30, 100, 300 or 450 mg liquid formulation).
# (§2) Participants in Part 1 received a single oral dose of the compound of Formula I-11 or placebo on Day 1 and serial PK samples were collected. Baseline assessments were performed on day −1 prior to dosing. Samples were collected for determination of pharmacodynamic parameters at pre-dose daily and up to 24 hours post dose (day 2) after a single oral dose of the compound of Formula I-11. Participants remained at the study site for observation for 24 hours post-dose through the PK sample collection on Day 2. Participants returned to the site for the 48, 72, and 120-hour post-dose sample collection on Days 3, 4, and 6. Safety was evaluated by a Safety Review Committee prior to escalation to the next dose level cohort.
# Part 2, Cohorts 1 through 4, included 41 participants (4 cohorts of 10 participants each and 1 additional placebo participant in Cohort 1). Male and female participants who met the eligibility criteria were randomly assigned at a ratio of 4:1 to receive either the compound of Formula I-11 oral liquid formulation or matching placebo, N=8 and 2 per dose cohort respectively. Forty (97.6%) males and 1 (2.4%) female (placebo) participant were enrolled.
# (§3) Participants in Part 2, Cohorts 1 through 3, received a daily oral dose of the compound of Formula I-11 (50, 100, or 200 mg liquid formulation respectively) or placebo for 7 days. A daily oral dose of the compound of Formula I-11 or placebo in participants in Part 2, Cohort 4 (350 mg liquid formulation) was planned for 14 days but was discontinued early in all subjects, either by the Investigator because of AEs, or by the Sponsor. A decision was made by the Sponsor to discontinue dosing of the entire cohort based on the frequency of AEs and laboratory abnormalities after Day 9. In Cohort 4, participants on the compound of Formula I-11 received daily oral dosing of 350 mg for up to 7 days; one placebo participant received daily oral dosing for 9 days. Samples were collected for determination of pharmacodynamic parameters at pre-dose daily and to 24 hours post dose (day 8) while on drug. Daily trough PK samples were collected for the determination of steady-state from Day 2 to Day 12 or 13. Participants returned to the site on Day 30 for an end-of-study visit. Safety was evaluated by a Safety Review Committee prior to escalation to the next dose level cohort.
# Part 2, MAD Cohort 5 (C5) participants received either the compound of Formula I-11, 100 mg (n=8) or placebo (n=2) on Days 1, 2, 3, 4, 5, 6, 7. The last dose was administered on the morning of Day 7. […]
# healthy volunteers [3] = assay: Phase 1 single- and multiple-ascending dose study, pharmacodynamic endpoints (serum iron, transferrin saturation, ferritin, hepcidin, reticulocyte hemoglobin, cholesterol); assay type: in vivo, human; conditions: for transferrin saturation, mean percent change from baseline / serum iron, mean change from baseline: Day 4, multiple ascending doses; for transferrin saturation, mean percent change from baseline: placebo 0.3%; for serum iron, mean change from baseline: placebo 1.4
# Excerpt: as §1, §2, §3
# Part 2, MAD Cohort 5 (C5) participants received either the compound of Formula I-11, 100 mg (n=8) or placebo (n=2) on Days 1, 2, 3, 4, 5, 6, 7. The last dose was administered on the morning of Day 7. Serial PK sample collection for the determination of steady-state concentrations of the compound of Formula I-11 was done at pre-dose and up to 24 hours post-dose, beginning on Day 1, 4 and 7. Participants returned for follow-up visits on […], and Day 30 for an end-of-study visit.
# Pharmacodynamic endpoints: Protocol-specified endpoints were assessed at baseline and regularly throughout the study period. These assessments included measurements of serum iron, transferrin saturation (calculated as serum iron/total iron-binding capacity), serum ferritin, serum hepcidin, and reticulocyte hemoglobin content, serum cholesterol, LDL, and HDL cholesterol. Measurements of all pharmacodynamic end points were made using standard clinical laboratory tests. Hepcidin analysis was performed using an ELISA kit from Intrinsic LifeSciences (Intrinsic Hepcidin IDx™ ELISA kit).
# [4] = Phase 1 single- and multiple-ascending dose study, PK parameters; assay type: in vivo, human
# Excerpt: as §1
# as §2, with “Participants remained at the study site for observation for 24 hours post-dose through the PK sample collection on Day 2. Participants returned to the site for the 48, 72, and 120-hour post-dose sample collection on Days 3, 4, and 6.” left out
# Participants in Part 2, Cohorts 1 through 3, received a daily oral dose of the compound of Formula I-11 (50, 100, or 200 mg liquid formulation respectively) or placebo for 7 days. […] Safety was evaluated by a Safety Review Committee prior to escalation to the next dose level cohort. […]
# [5] = 5 mg/kg once-daily oral from day 8, study termination (day 18)
# [6] = 5 mg/kg once-daily oral from day 8, study termination (day 18), with TMPRSS6 siRNA
# [7] = 5 mg/kg PO daily for 10 days, Day 52
# [8] = 5 mg/kg PO daily, after 10 days
# [9] = fourth dose level (350 mg daily)
# [10] = second dose level (100 mg daily)
# [11] = third dose level (200 mg daily)
structure (smiles),measurement,setting,value
COc1cc2c(-c3cnn4cc(N5CC(N6CCN(C)CC6)C5)cnc34)ccnc2cc1F [Formula I-42],disease phenotype,mouse model of IRIDA; 5 mg/kg once-daily oral,rescued the disease phenotype
same,serum hepcidin vs vehicle-treated mice receiving TMPRSS6 siRNA,mouse model of IRIDA; [5],decreased serum hepcidin
same,serum iron vs vehicle-treated mice receiving TMPRSS6 siRNA,mouse model of IRIDA; [5],increased serum iron
same,hematocrit vs vehicle-treated mice,mouse model of IRIDA; [6],increase
same,hemoglobin levels vs vehicle-treated mice,mouse model of IRIDA; [6],increase
same,red blood cell counts vs vehicle-treated mice,mouse model of IRIDA; [6],increase
same,"hematocrit, higher than vehicle-treated mice receiving adenine",[1]; [7],10.2%
same,"hemoglobin, higher than vehicle-treated mice receiving adenine",[1]; [7],10.7%
same,"red blood cell counts, higher than vehicle-treated mice receiving adenine",[1]; [7],7.1%
same,"reticulocyte hemoglobin content, higher than vehicle-treated mice receiving adenine",[1]; [7],10.4%
same,increase in serum iron values vs vehicle treated mice receiving adenine,[1]; [8],108.2%
same,reduction in serum hepcidin values vs vehicle treated mice receiving adenine,[1]; [8],85.4%
COc1cc2c(-c3cnn4cc(N5CCC(N6CCN(C)CC6)CC5)cnc34)ccnc2cc1F [Formula I-11],"well tolerated dose level, repeated dose","healthy volunteers [2]; after 7 daily oral doses, healthy participants",up to 200 mg
same,participants who discontinued the study due to AEs,"healthy volunteers [2]; human, in vivo",25%
same,AEs reported in ≥2 subjects and higher than placebo,healthy volunteers [2]; in vivo,"headache, nausea, vomiting, diarrhea, gastroenteritis, chills, pyrexia, myalgia, decreased appetite, lymphopenia, neutropenia, abdominal discomfort, abdominal pain (upper), dizziness, fatigue, rhinorrhea, tonsillitis, and liver enzyme increases"
same,AEs that led to study drug discontinuation in three or more participants,healthy volunteers [2]; in vivo,lymphopenia and chills
same,onset of lymphopenia (% change in lymphocytes),healthy volunteers [2]; in vivo,5 days
same,reversibility of lymphopenia / lymphocyte changes,healthy volunteers [2]; in vivo,reversible
same,serious adverse events,healthy volunteers [2]; in vivo,no serious adverse events
same,severity of the majority of AEs,healthy volunteers [2]; in vivo,mild or moderate in severity
same,subjects who discontinued the study due to AEs,healthy volunteers [2]; in vivo,none
same,subjects with increases in ALT >2×ULN,healthy volunteers [2]; in vivo,3 subjects
same,development of lymphopenia (lymphocyte counts <1.0×10^9 cells/L),"healthy volunteers [2]; in vivo, po",≥ 6 day
same,"well tolerated dose level, single dose","healthy volunteers [2]; single oral dose, healthy participants",up to 450 mg
same,time to decrease in hepcidin,"healthy volunteers [3]; Cohort 5 (100 mg), after administration of the first dose, as early as",4 h
same,"transferrin saturation, mean percent change from baseline",healthy volunteers [3]; first dose level (50 mg daily),1.6%
same,"serum iron, mean change from baseline",healthy volunteers [3]; first dose level (50 mg daily),1.48 μM/L
same,"transferrin saturation, mean percent change from baseline",healthy volunteers [3]; [9],30.1%
same,"serum iron, mean change from baseline",healthy volunteers [3]; [9],17.71 μM/L
same,"transferrin saturation, mean percent change from baseline",healthy volunteers [3]; [10],1.5%
same,"serum iron, mean change from baseline",healthy volunteers [3]; [10],0.59 μM/L
same,"transferrin saturation, mean percent change from baseline",healthy volunteers [3]; [11],7.5%
same,"serum iron, mean change from baseline",healthy volunteers [3]; [11],5.11 μM/L
same,serum ferritin,healthy volunteers [3]; MAD cohort participants,decreases in serum ferritin
same,day of peak increase in reticulocyte hemoglobin content,healthy volunteers [3]; MAD cohorts,7 days
same,start of increase in reticulocyte hemoglobin content,"healthy volunteers [3]; MAD cohorts 1-4, day post-dosing",4 days
same,"effect on serum ferritin, single vs multiple doses",healthy volunteers [3]; SAD and MAD cohorts,observed only after multiple doses
same,time to decrease in total cholesterol,healthy volunteers [3]; SAD cohorts,≤ 24 h
same,day of peak serum iron concentrations,"healthy volunteers [3]; multiple dose regimen, day of treatment",Day 3 or 4
same,"transferrin saturation, observed PD response",healthy volunteers [3]; once-daily doses of 50 mg,not substantially different from placebo
same,serum hepcidin vs placebo,"healthy volunteers [3]; once-daily oral over 7 days, effect similar at 50 mg, 100 mg and 200 mg",robust decreases in baseline hepcidin
same,hemoglobin content of reticulocytes,healthy volunteers [3]; repeated administration,increases over baseline in the hemoglobin content of reticulocytes
same,serum iron,healthy volunteers [3]; single (SAD) or once-daily (MAD) oral administration,"rapid, robust, and sustained dose-related increases in serum iron"
same,"transferrin saturation, observed PD response","healthy volunteers [3]; single dose of 30 mg, liquid formulation",not substantially different from placebo
same,time of peak effect on serum iron,"healthy volunteers [3]; single dose, Day 2, post-dose",24 h
same,transferrin saturation,healthy volunteers [3]; single or repeated doses of 100 mg or above,"sustained, dose-related increases in transferrin saturation"
same,total cholesterol,healthy volunteers [3]; single or repeated oral administration (Cohorts 1-4),decreases in total cholesterol
same,half-life,"[4]; both sexes, human, in vivo, oral, healthy participants, approximately",10 to 15 h
same,"Mean AUC and Cmax, dose proportionality",[4]; multiple doses from 50-200 mg,greater than dose-proportional increases
